Read-outs that look alike come from different tables or passages of the source.
Assays:
[1] = test system: Human platelet aggregation (ADP induced); assay: Human platelet aggregation inhibiting effect (in vitro); type: cell-based; conditions: human PRP, ADP 2-10 μM, 37° C., one minute preincubation, read-out: Platelet aggregation inhibiting ratio (IC50)
Experimental: Platelet aggregation inhibiting effect
Bloods were sampled from healthy voluers (22-34 years old) with no administration of drug for 2 weeks or more early in the morning when they were hungry. By use of an injector filled with 5 ml of 3.8% sodium citrate solution, 50 ml of blood was sampled, immediately stirred by turning upside down and centrifuged at 200×g for 15 minutes. The supernatant was separated as the PRP (platelet rich plasma) and the residue further subjected to centrigugation at 2000×g for 15 minutes, followed by recovery of the supernatant as PPP (poor platelet plasma) which was provided for use in the experiment.
PRP (250 μ) was placed in a cuvette, 5 μof an 1% ethanol solution of the compound of the present invention or an 1% ethanol solution was added, and incubation was carried out at 37° C. for one minute. Then, an aggregation inducing agent (ADP) was added and the process of aggregation was recorded by Aggregometer (Sienco Co.). As the concentration of ADP, the minimum concentrations of ADP (2-10 μM) to give the maximum aggregation for respective platelets were employed. The inhibition percentage of platelet aggregation was calculated by the following formula:
Inhibition percentage=(A-B)/A×100
A: Maximum aggregation ratio during addition of solvent (1% ethanol solution)
B: Maximum aggregation ratio during addition of the compound of the present invention.
The platelet aggregation inhibiting effects of the compounds of the present invention are shown in terms of IC50 values in Table 6.

[2] = test system: gastric acid secretion; assay: Antiulcer effect (2): rat gastric acid inhibiting effect (pylorus ligature); type: in vivo, male Wistar rat; conditions: subcutaneous, 100 μg/kg, 4 hours after pylorus ligature; for Amount of gastric acid secreted: solvent 73.6
Experimental: Male wistar strain rats (weighing 250-280 g) were fasted for 18 hours subjected to peritoneotomy under ether anesthesia for ligature of pylorus, and after 4 hours under abstinence from food and water, gastric juice was sampled. The gastric juice was centrifuged at 3000 rpm for 10 minutes, and then the amount, pH and acidity of the gastric juice were measured. The acidity was measured by titration by means of an automatic titrating device (Toa Denpa Kogyo) with a 0.1N NaOH to pH 7.0 and calculating according to the following formula: [formula]
The gastric juice secretion inhibition percentage was calculated according to the following formula: [formula] A: Amount of gastric acid excreted in Control group B: Amount of gastric acid excreted in Drug group
The drugs to be tested were adminsistered subcutaneously immediately after pylorus ligature.

[3] = test system: blood pressure; assay: Hypotensive effect in anesthetized rats; type: in vivo, male Wistar rat; conditions: intravenous, 10 μg/kg
Experimental: Male wistar strain rats (weighing 240-290 g) were anesthetized by intraperitoneal administration of 50 mg/kg of sodium pentobarbital, and blood pressures were measured. The compound of the present invention was administered intravenously as a solution dissolved in 10 ethanol- 90% physiological salt solution. The hypotensive effect is expressed by the percent change of average blood pressure after intravenous administration (relative to that before administration).

[4] = test system: gastric mucosa damage; assay: Antiulcer effect (1): inhibition of hydrochloric acid induced gastric mucosa damage; type: in vivo, male SD rat; conditions: oral, 25 μg/kg, 30 minutes before 1 ml of 0.6N hydrochloric acid
Experimental: Male SD-strain rats (weighing 220-255 g) were fasted for 20 hours (water was given ad libitum) and, after further abstinence from food and water for 4 hours, the compound of the present invention was administered orally, followed further by oral administration of 1 ml of 0.6N hydrochloric acid 30 minutes later. One hour after administration of hydrochloric acid, the stomach was enucleated under chloroform anesthesia. The fluid in the stomach was discharged and 7.5 ml of a 1% formalin solution was injected into the stomach to fix the gastric mucosa. Then, the stomach was dissected along the greater curvature and the length of the gastric mucosa damage was measured under a steroscopic microscope. The compound of the present invention was dissolved in 5% ethanol-95% physiological salt solution and administered at a dose of 25 μg/kg in a volume of 5 ml/kg.
The antiulcer effect of the compound of the present invention was calculated by the following formula: [formula] l: length of gastric mucosa damage in the group to which the compound of the present invention is administered;
lo: length of gastric mucosa damage in the group of non-administration of drug.

[5] = test system: right femoral artery; assay: Vasodilative effect (perfusion pressure of femoral artery in anesthetized dogs); type: in vivo, dog; conditions: intraarterial, 100 μg/kg
Experimental: Female and male adult dogs were anesthetized by intraveneous administeration of 30 mg/kg of sodium pentobarbital and fixed on their back positions. The right femoral artery was perfused at constant flow with the dog's own blood by means of a peristaltic pump (Harvard Co.). The perfusion pressure was measured with an electromanometer and systemic blood pressure was measured in the other femoral artery with a pressure transducer. As an anticoagulant, 500 U/kg of heparin sodium was intravenously administered.
The compound of the present invention was dissolved in 10% ethanol-90% physiological salt solution and administered into arterial blood through a thick rubber tube provided in the perfusion circuit. The vasodilative effect of the compound of the present invention is expressed by the change ratio of perfusion pressure after administration into the artery.

IC50 ([1]; Platelet) [nM] | Compound | Gastric acid secretion Inhibition [2] [%] | Amount of gastric acid secreted [2] [mEq/l] | further results
5 | O=C(O)CCC=CC1=C[C@H]2C[C@@H](O)[C@H](/C=C/[C@@H](O)C3CCCCC3)[C@H]2C1 [Compound E] | – | – | –
200 | CCCCC(C)(C)[C@H](O)/C=C/[C@@H]1[C@H]2CC(C=CCCC(=O)O)=C[C@H]2C[C@H]1O [Compound J, 3-(4'-carboxy-1'-butenyl)-6(S)-(3'(S)-hydroxy-4',4'-dimethyl-trans-1'-octenyl)-7(R)-hydroxy-(1S,5S)-cis-bicyclo[3.3.0]oct-2-ene] | 18.1 | 60.3 | –
300 | CC(C1CCCCC1)[C@H](O)/C=C/[C@@H]1[C@H]2CC(C=CCCC(=O)O)=C[C@H]2C[C@H]1O (some centres unmarked) [Compound L] | 36.8 | 46.5 | –
9 | O=C(O)CCCC=C1C[C@H]2C[C@@H](O)[C@H](/C=C/[C@@H](O)C3CCCC3)[C@H]2C1 [OP-41483] | – | – | Percent change of average blood pressure [3]: -39%; Inhibition of gastric mucosa damage [4]: -28.3%; Perfusion pressure change [5]: -16%
7 | O=C(O)CCC=CC1=C[C@H]2C[C@@H](O)[C@H](/C=C/[C@@H](O)C3CCCC3)[C@H]2C1 [Compound B] | – | – | –
14 | CCCCC[C@H](O)/C=C/[C@@H]1[C@H]2CC(C=CCCC(=O)O)=C[C@H]2C[C@H]1O [Compound A] | – | – | –

Second part, the molecule before the results:

Compound | IC50 ([1]; Platelet) [nM] | Gastric acid secretion Inhibition [2] [%] | Amount of gastric acid secreted [2] [mEq/l] | further results
CC#CCC(C)[C@H](O)/C=C/[C@@H]1[C@H]2CC(C=CCCC(=O)O)=C[C@H]2C[C@H]1O (some centres unmarked) [Compound C] | 0.8 | – | – | –
CCC#CCC(C)[C@H](O)/C=C/[C@@H]1[C@H]2CC(C=CCCC(=O)O)=C[C@H]2C[C@H]1O (stereo partly drawn) [Compound F, 3-(4'-carboxy-1'-butenyl)-6(S)-(3'(S)-hydroxy-4'(RS)-methyl-trans-1'-nonen-6'-ynyl)-7(R)-hydroxy-(1S,5S)-cis-bicyclo[3.3.0]oct-2-ene] | 4 | 81.8 | 13.4 | –
CCCC(C)C[C@H](O)/C=C/[C@H]1[C@H]2CC(C=CCCC(=O)O)=C[C@H]2C[C@H]1O (mixture of isomers) [Compound K, 3-(4'-carboxy-1'-butenyl)-6(S)-(3'(S)-hydroxy-5'(RS)-methyl-trans-1'-octenyl)-7(R)-hydroxy-(1S,5S)-cis-bicyclo[3.3.0]oct-2-ene] | – | 70.5 | 21.7 | IC50 [1]: 2 nM
CCCCC(C)C[C@H](O)/C=C/[C@H]1[C@H]2CC(C=CCCC(=O)O)=C[C@H]2C[C@H]1O (mixture of isomers) [Compound M, 3-(4'-carboxy-1'-butenyl)-6(S)-(3'(S)-hydroxy-5'(RS)-methyl-trans-1'-nonenyl)-7(R)-hydroxy-(1S,5S)-cis-bicyclo[3.3.0]-oct-2-ene] | – | 73.5 | 19.5 | IC50 [1]: 4 nM
CCCCCC(C)[C@H](O)/C=C/[C@@H]1[C@H]2CC(C=CCCC(=O)O)=C[C@H]2C[C@H]1O (stereo partly drawn) [Compound H, 3-(4'-carboxy-1'-butenyl)-6(S)-(3'(S)-hydroxy-4'(RS)-methyl-trans-1'-nonenyl-7(R)-hydroxy-1S,5S)-cis-bicyclo[3.3.0]oct-2-ene] | 8 | 89.9 | 7.4 | –
O=C(O)CCC=CC1=C[C@H]2C[C@@H](O)[C@H](/C=C/[C@@H](O)CCc3ccccc3)[C@H]2C1 [Compound I, 3-(4'-carboxy-1'-butenyl)-6(S)-(3'(S)-hydroxy-5'-phenyl-trans-1'-pentenyl)-7(R)-hydroxy-(1S,5S)-cis-bicyclo[3.3.0]oct-2-ene] | 80 | 73.5 | 19.5 | –
CCC#CC(C)C[C@H](O)/C=C/[C@@H]1[C@H]2CC(C=CCCC(=O)O)=C[C@H]2C[C@H]1O (some centres unmarked) [Compound G] | 0.6 | – | – | –
CCCCC[C@H](O)/C=C/[C@H]1[C@H](O)CC(=O)[C@@H]1C/C=C\CCCC(=O)O [PGE2] | – | – | – | Inhibition of gastric mucosa damage [4]: 61.1%
CC(C)=CCC[C@@H](C)C[C@H](O)/C=C/[C@@H]1[C@H]2CC(C=CCCC(=O)O)=C[C@H]2C[C@H]1O [Compound D] | 20 | – | – | –

— patent US4699921A, “Pharmaceuticals containing prostaglandin I2” (Mitsubishi Yuka Pharmaceutical Co., Ltd., priority 1984, dated 1987)
